Experiments:
barnyard grass [1] = assay: Test Example 4: herbicidal effect by soil treatment (Table 19, symbol H); assay type: in vivo, barnyard grass (Echinochloa crus-galli); conditions: 320 g/ha
How it was run: (§1)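 Soil-surface application: an emulsion agent diluted with water to the predetermined dose is sprayed uniformly over seeds lying under roughly 1.5 cm of sterilized diluvial soil. Boxes stay in a greenhouse at 25° C. to 30° C. Three weeks later, each species is graded on previously defined criteria.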

Italian ryegrass [2] = assay: Test Example 5: herbicidal effect by foliage application, plastic box (Table 20, symbol K); assay type: in vivo, Italian ryegrass (Lolium multiflorum); conditions: foliage application, 320 g/ha, 3 weeks after application
How it was run: (§2)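 Sow seeds spot-wise in sterilized diluvial soil; cover with ~1.5 cm soil. Grow 14 days in greenhouse, 25° C. to 30° C. Spray foliage with emulsion diluted to predetermined amount. Rate effect after 3 weeks.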

windgrass [3] = assay: Test Example 5: herbicidal effect by foliage application, plastic box (Table 20, symbol L); assay type: in vivo, windgrass (Apera spica-venti); conditions: foliage application, 320 g/ha, 3 weeks after application
How it was run: as §2

velvetleaf [4] = assay: Test Example 5: herbicidal effect by foliage application, plastic box (Table 20, symbol M); assay type: in vivo, velvetleaf (Abutilon theophrasti); conditions: foliage application, 320 g/ha, 3 weeks after application
How it was run: as §2

barnyard grass [5] = assay: Test Example 5: herbicidal effect by foliage application, plastic box (Table 20, symbol H); assay type: in vivo, barnyard grass (Echinochloa crus-galli); conditions: foliage application, 320 g/ha, 3 weeks after application
How it was run: as §2

wild oat [6] = assay: Test Example 5: herbicidal effect by foliage application, plastic box (Table 20, symbol I); assay type: in vivo, wild oat (Avena fatua); conditions: foliage application, 320 g/ha, 3 weeks after application
How it was run: as §2

southern crabgrass [7] = assay: Test Example 5: herbicidal effect by foliage application, plastic box (Table 20, symbol F); assay type: in vivo, southern crabgrass (Digitaria ciliaris); conditions: foliage application, 320 g/ha, 3 weeks after application
How it was run: as §2

Japanese bulrush = assay: Test Example 2: herbicidal activity, application during weed generation under submerged conditions (Table 17, symbol B); assay type: in vivo, Japanese bulrush (Schoenoplectus juncoides); conditions: AAH 320 g/ha; application during weed generation, submerged conditions
How it was run: (§3)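 3-wk visual-criteria score after one water-surface dose. Emulsion formulation, water-diluted to set rate; applied at 1–2 leaf stage; alluvial soil, 4 cm standing water; seeds co-sown; greenhouse 25–30° C.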

green foxtail [8] = assay: Test Example 4: herbicidal effect by soil treatment (Table 19, symbol G); assay type: in vivo, green foxtail (Setaria viridis); conditions: 320 g/ha
How it was run: as §1

velvetleaf [9] = assay: Test Example 4: herbicidal effect by soil treatment (Table 19, symbol M); assay type: in vivo, velvetleaf (Abutilon theophrasti); conditions: 320 g/ha
How it was run: as §1

late watergrass = assay: Test Example 2: herbicidal activity, application during weed generation under submerged conditions (Table 17, symbol A); assay type: in vivo, late watergrass (Echinochloa oryzicola); conditions: AAH 320 g/ha; application during weed generation, submerged conditions
How it was run: as §3

blackgrass [10] = assay: Test Example 4: herbicidal effect by soil treatment (Table 19, symbol J); assay type: in vivo, blackgrass (Alopecurus myosuroides); conditions: 320 g/ha
How it was run: as §1

persian speedwell [11] = assay: Test Example 5: herbicidal effect by foliage application, plastic box (Table 20, symbol R); assay type: in vivo, Persian speedwell (Veronica persica); conditions: foliage application, 320 g/ha, 3 weeks after application
How it was run: as §2

oval-leafed pondweed = assay: Test Example 2: herbicidal activity, application during weed generation under submerged conditions (Table 17, symbol C); assay type: in vivo, oval-leafed pondweed (Monochoria vaginalis); conditions: AAH 320 g/ha; application during weed generation, submerged conditions
How it was run: as §3

redroot pigweed = assay: Test Example 4: herbicidal effect by soil treatment (Table 19, symbol N); assay type: in vivo, redroot pigweed (Amaranthus retroflexus); conditions: 320 g/ha
How it was run: as §1

chickweed = assay: Test Example 4: herbicidal effect by soil treatment (Table 19, symbol P); assay type: in vivo, common chickweed (Stellaria media); conditions: 320 g/ha
How it was run: as §1

lambsquarters [12] = assay: Test Example 5: herbicidal effect by foliage application, plastic box (Table 20, symbol O); assay type: in vivo, lambsquarters (Chenopodium album); conditions: foliage application, 320 g/ha, 3 weeks after application
How it was run: as §2

barnyard grass [13] = assay: Test Example 3: herbicidal effect by foliage application, Wagner pot (Table 18, symbol H); assay type: in vivo, barnyard grass (Echinochloa crus-galli); conditions: 320 g/ha
How it was run: (§4)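 Plants were sown in alluvial soil held under 0.1–0.5 cm standing water and grown 14 days in a greenhouse at 25–30 °C. An emulsifiable formulation, water-diluted to the set dose, was then sprayed onto the foliage, and effects were scored three weeks later using previously defined criteria.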

Italian ryegrass [14] = assay: Test Example 4: herbicidal effect by soil treatment (Table 19, symbol K); assay type: in vivo, Italian ryegrass (Lolium multiflorum); conditions: 320 g/ha
How it was run: as §1

rice flat sedge = assay: Test Example 3: herbicidal effect by foliage application, Wagner pot (Table 18, symbol E); assay type: in vivo, rice flat sedge (Cyperus iria); conditions: 320 g/ha
How it was run: as §4

windgrass [15] = assay: Test Example 4: herbicidal effect by soil treatment (Table 19, symbol L); assay type: in vivo, windgrass (Apera spica-venti); conditions: 320 g/ha
How it was run: as §1

false cleavers [16] = assay: Test Example 5: herbicidal effect by foliage application, plastic box (Table 20, symbol Q); assay type: in vivo, false cleavers (Galium spurium); conditions: foliage application, 320 g/ha, 3 weeks after application
How it was run: as §2

blackgrass [17] = assay: Test Example 5: herbicidal effect by foliage application, plastic box (Table 20, symbol J); assay type: in vivo, blackgrass (Alopecurus myosuroides); conditions: foliage application, 320 g/ha, 3 weeks after application
How it was run: as §2

green foxtail [18] = assay: Test Example 5: herbicidal effect by foliage application, plastic box (Table 20, symbol G); assay type: in vivo, green foxtail (Setaria viridis); conditions: foliage application, 320 g/ha, 3 weeks after application
How it was run: as §2

false cleavers [19] = assay: Test Example 4: herbicidal effect by soil treatment (Table 19, symbol Q); assay type: in vivo, false cleavers (Galium spurium); conditions: 320 g/ha
How it was run: as §1

wild oat [20] = assay: Test Example 4: herbicidal effect by soil treatment (Table 19, symbol I); assay type: in vivo, wild oat (Avena fatua); conditions: 320 g/ha
How it was run: as §1

southern crabgrass [21] = assay: Test Example 4: herbicidal effect by soil treatment (Table 19, symbol F); assay type: in vivo, southern crabgrass (Digitaria ciliaris); conditions: 320 g/ha
How it was run: as §1

Chinese sprangletop = assay: Test Example 3: herbicidal effect by foliage application, Wagner pot (Table 18, symbol D); assay type: in vivo, chinese sprangletop (Leptochloa chinensis); conditions: 320 g/ha
How it was run: as §4

persian speedwell [22] = assay: Test Example 4: herbicidal effect by soil treatment (Table 19, symbol R); assay type: in vivo, Persian speedwell (Veronica persica); conditions: 320 g/ha
How it was run: as §1

lambsquarters [23] = assay: Test Example 4: herbicidal effect by soil treatment (Table 19, symbol O); assay type: in vivo, lambsquarters (Chenopodium album); conditions: 320 g/ha
How it was run: as §1

CCCC(=O)Oc1c(C)nn(C)c(=O)c1-c1c(-c2ccc(F)cc2)sc2ccc(F)cc12 [2-002]
herbicidal effect rating, H: barnyard grass (barnyard grass [1]): 4 (Herbicidal rate of 70% or more and less than 90%)
effect on Italian ryegrass (K) (Italian ryegrass [2]): 5 (Herbicidal rate of 90% or more (almost completely withered))
effect on windgrass (L) (windgrass [3]): 3 (Herbicidal rate of 40% or more and less than 70%)
effect on velvetleaf (M) (velvetleaf [4]): 5 (Herbicidal rate of 90% or more (almost completely withered))
effect on barnyard grass (H) (barnyard grass [5]): 5 (Herbicidal rate of 90% or more (almost completely withered))
effect on wild oat (I) (wild oat [6]): 4 (Herbicidal rate of 70% or more and less than 90%)
effect on southern crabgrass (F) (southern crabgrass [7]): 5 (Herbicidal rate of 90% or more (almost completely withered))
herbicidal effect rating, B: Japanese bulrush (Japanese bulrush): 0 (Herbicidal rate of 5% or less (almost no effect))
herbicidal effect rating, G: green foxtail (green foxtail [8]): 5 (Herbicidal rate of 90% or more (almost completely withered))
herbicidal effect rating, M: velvetleaf (velvetleaf [9]): 5 (Herbicidal rate of 90% or more (almost completely withered))
herbicidal effect rating, A: late watergrass (late watergrass): 2 (Herbicidal rate of 20% or more and less than 40%)
herbicidal effect rating, J: blackgrass (blackgrass [10]): 1 (Herbicidal rate of 5% or more and less than 20%)
effect on persian speedwell (R) (persian speedwell [11]): 5 (Herbicidal rate of 90% or more (almost completely withered))
herbicidal effect rating, C: oval-leafed pondweed (oval-leafed pondweed): 3 (Herbicidal rate of 40% or more and less than 70%)
herbicidal effect rating, N: redroot pigweed (redroot pigweed): 5 (Herbicidal rate of 90% or more (almost completely withered))
herbicidal effect rating, P: chickweed (chickweed): 3 (Herbicidal rate of 40% or more and less than 70%)
effect on lambsquarters (O) (lambsquarters [12]): 5 (Herbicidal rate of 90% or more (almost completely withered))
herbicidal effect on H (barnyard grass), rating 0-5 (barnyard grass [13]): 5 (Herbicidal rate of 90% or more (almost completely withered))
herbicidal effect rating, K: Italian ryegrass (Italian ryegrass [14]): 5 (Herbicidal rate of 90% or more (almost completely withered))
herbicidal effect on E (rice flat sedge), rating 0-5 (rice flat sedge): 5 (Herbicidal rate of 90% or more (almost completely withered))
herbicidal effect rating, L: windgrass (windgrass [15]): 1 (Herbicidal rate of 5% or more and less than 20%)
effect on false cleavers (Q) (false cleavers [16]): 5 (Herbicidal rate of 90% or more (almost completely withered))
effect on blackgrass (J) (blackgrass [17]): 4 (Herbicidal rate of 70% or more and less than 90%)
effect on green foxtail (G) (green foxtail [18]): 5 (Herbicidal rate of 90% or more (almost completely withered))
herbicidal effect rating, Q: false cleavers (false cleavers [19]): 4 (Herbicidal rate of 70% or more and less than 90%)
herbicidal effect rating, I: wild oat (wild oat [20]): 3 (Herbicidal rate of 40% or more and less than 70%)
herbicidal effect rating, F: southern crabgrass (southern crabgrass [21]): 5 (Herbicidal rate of 90% or more (almost completely withered))
herbicidal effect on D (Chinese sprangletop), rating 0-5 (Chinese sprangletop): 5 (Herbicidal rate of 90% or more (almost completely withered))
herbicidal effect rating, R: persian speedwell (persian speedwell [22]): 5 (Herbicidal rate of 90% or more (almost completely withered))
herbicidal effect rating, O: lambsquarters (lambsquarters [23]): 4 (Herbicidal rate of 70% or more and less than 90%)
